Test results as given in patent publication US20050043262A1, “Novel specific inhibitor of the cyclin kinase inhibitor p21Waf1/Cip1 and methods of using the inhibitor” (priority 2000, published 2005).
In the oligonucleotide strings, read from the 5' end, every base follows the letter of its sugar. An asterisk marks phosphorothioate; unmarked linkages are phosphodiester. Other units and linkages are bracketed, terminal groups are in braces. A string of capitals states the bases alone. d = 2'-deoxy (DNA)

What was measured:
caspase-3 = test: Caspase-3 activity (CaspACE colorimetric assay) in T47D cells; assay type: cell-based, human; conditions: 200 to 400 nM
Protocol: Caspase-3 Activity: The CaspACE Assay System was used to measure the activity of caspase-3. After incubation under appropriate conditions, the cells were lysed in CaspACE lysis buffer, and protein concentration was determined by dye reagent protein assay (Bio-Rad, Hercules, Calif.). […] The lysates with equal protein amounts were incubated with DEVD-p-nitroaniline substrate for 4 hours at 37° C. The reaction products were detected at 405 nm using a PowerWave X automated plate reader (Bio-Tek Instruments).
As another confirmatory test for antisense p21 ODN-mediated apoptosis, caspase-3 activation was assessed. Members of the caspase family of proteases are essential components of an evolutionarily conserved cell death pathway in multicellular eukaryotes and play key roles in inflammation and apoptosis in mammalian cells. Caspase-3 has substrate specificity for the amino acid sequence DEVD (Asp-Glu-Val-Asp) and is inhibited by the tetrapeptide inhibitor Ac-DEVD-CHO; its catalytic activity was assessed colorimetrically using the labeled Ac-DEVD-pNA substrate. […] T47D cells were grown to confluence, serum starved for 24 hours, and lipofected with antisense p21 or control ODN at the concentrations indicated. Caspase-3 activity was assessed as described in “Capase-3 Activity” using a colorimetric method. […]

PARP = PARP cleavage by immunoblot in MCF7 cells; assay type: cell-based, human
Protocol: As a further measure of apoptosis, cleavage of PARP was next examined. This protein is cleaved by caspases and results in appearance of Mr 85,000 and Mr 24,000 fragments, the latter of which binds irreversibly to broken ends of DNA, which assures irreversibility of apoptosis. Both breast cancer cell lines were transfected with antisense p21 and random sequence ODNs and immunoblotted with PARP antibody. […] T47D (A) and MCF7 (B) cells were grown to confluence, serum starved for 24 hours, and lipofected with antisense p21 or control ODN at the concentrations indicated. cont refers to nontransfected cells, and lipofect refers to cells treated with lipofectin but no DNA. The cells were lysed, and equal protein quantities were electrophoresed and immunoblotted with PARP antibody. The degradation product of PARP (Mr 85,000) is indicated by an arrow. MAPK is a loading control; a positive PARP cleavage control is Jurkat whole cell lysate.

p21^Waf1/Cip1 = test: p21 protein level by Western blot in A10 VSM cells; assay type: cell-based, rat; conditions: for p21 levels after ionizing radiation: 12 Gy, up to 4 hours
Protocol: Western blots: Cells were grown to confluence in 6 cm culture dishes and serum deprived. After transfection and or treatment with appropriate agonist, the cells were washed with phosphate-buffered saline and lysed in lysis buffer and the supernatant was Western blotted as described (Weiss et al., 1998 Am. J. Physiol., 274, p. C1521-C1529).
To determine whether antisense transfection with p21^Waf1/Cip1 antisense oligonucleotides indeed decreases p21^Waf1/Cip1 protein levels, p21^Waf1/Cip1 levels after antisense transfection were examined employing the fact that PMA is a potent inducer of p21^Waf1/Cip1 (Huang et al., 1995 Proc. Natl. Acad. Sci. U.S.A., 92, p. 4793-4797; Michieli et al., 1994 Cancer Res., 54, p. 3391-3395). Since p21^Waf1/Cip1 protein levels were induced in VSM cells between 2 and 6 hours after PMA stimulation (FIG. 4), the p21^Waf1/Cip1 levels in transfected cells after similar times of PMA stimulation were examined. […] There was no effect of the p21^Waf1/Cip1 sense (SEQ. ID NO.:2) control oligodeoxynucleotide on cellular p21^Waf1/Cip1 levels (compare with FIG. 4).
To check for specificity of protein inhibition by the antisense p21^Waf1/Cip1 oligodeoxynucleotide (SEQ. ID NO.: 1), protein levels of p21^Waf1/Cip1 and p27^Kip1 after transfection with antisense p21^Waf1/Cip1 oligodeoxynucleotide (SEQ. ID NO.:1) were examined. In these experiments the ability of antisense oligodeoxynucleotides (SEQ. ID NO.:1) to inhibit maximally stimulated CKI expression (see FIG. 4) was assessed. The cells were stimulated with PMA for 4 hours at various times after overnight serum starvation.
Western blots: Cells were grown to confluence in 6 cm culture dishes and serum deprived. After transfection and or treatment with appropriate agonist, conditioned medium was removed and saved and the cells were washed with phosphate-buffered saline and lysed in lysis buffer. Both supernatant and cell lysate were normalized to the lysate protein concentrations and Western blotted as described (Weiss R H, et al. Am J Physiol 274:C1521-C1529, 1998).
To confirm that p21 levels were increased after exposure to ionizing radiation, and that the oligonucleotides inhibit this phenomenon in A10 cells, p21 protein levels under these conditions were assayed. […] With the exception of the initial decrease in p21 levels at ½ and 1 hours, the results with the control oligonucleotides were similar to that observed in non-transfected cells.
Adriamycin is a prototypical DNA damaging agent used in the treatment of a variety of cancers. The predominantly G2 arrest seen after Adriamycin treatment has been associated with an increase in p21 levels in some cell lines (Siu W Y, et al. FEBS Lett 461:299-305, 1999). In order to determine whether similar augmentation of p21 is seen in A10 VSM cells and whether the antisense p21 oligonucleotide is inhibiting this response, these cells were treated with Adriamycin either with or without first transfecting the cells with the antisense and control oligonucleotides. Confluent VSM cells were transfected with antisense oligonucleotide to p21 or random sequence control oligonucleotide as described above. After 24 hours, the cells were exposed to Adriamycin (500 ng/ml), lysed at the indicated times after exposure, and Western blotted with p21 antibody.
Using a random sequence phosphorothioate oligodeoxynucleotide (SEQ. ID NO.:3) as a control, the effect of the antisense oligodeoxynucleotide to p21 (400 nM) on p21 and α-actin protein expression in A10 VSM cells, was examined. The lysates, normalized for protein content, were Western blotted with either p21 or α-actin antibody.

Row | Substance | caspase-3 cleavage (activity) (caspase-3) | PARP cleavage (Mr 85,000 product) (PARP) | p21 protein level (p21^Waf1/Cip1; A10 VSM cells, 400 nM) | p21 levels after ionizing radiation (p21^Waf1/Cip1; A10 VSM cells) | p21^Waf1/Cip1 protein after maximal stimulation with PMA (p21^Waf1/Cip1; A10 VSM cells, PMA for 4 hours) | PMA-induced p21^Waf1/Cip1 levels (p21^Waf1/Cip1; A10 VSM cells, PMA stimulation up to 6 hours after transfection) | Adriamycin-induced increase of p21 levels (p21^Waf1/Cip1; transfected VSM cells, Adriamycin 500 ng/ml)
1 | 5′-ATC-CCC-AGC-CGG-TTC-TGA-CAT-3′ (antisense ATCCCCAGCCGGTTCTGACAT; listed as DNA, chemistry not fully specified) [antisense p21 ODN] | marked dose-dependent caspase-3 cleavage | marked PARP cleavage |  |  |  |  | 
2 | 5′-GACATCACCAGGATCGGACAT-3′ |  |  | marked inhibition | consistently low | completely inhibited | significant attenuation | marked attenuation
3 | 5′-TGG ATC CGA CAT GTC AGA-3′ (dT*dG*dG*dA*dT*dC*dC*dG*dA*dC*dA*dT*dG*dT*dC*dA*dG*dA) [random sequence control oligonucleotide, reference compound] | no change | proapoptotic effect |  | initial slight inhibition |  |  | 
